# Entries after “also recorded” stand apart in the source; their conditions may differ. Read-outs that look alike come from different tables or passages of the source. Residues, ends and D or L forms follow the SMILES beside them.
# Legend:
# [1] = molecular target: T1, TBC1D23 C-terminal domain (Mus musculus, UniProt Q8K0F1); assay: ITC of cargo and mutant syntaxin-16 peptides binding to wild-type TBC1D23 C-terminal domain; conditions: for Kd / KD (μM): 20°C; for KD (μM): peptide (0.8-5 mM) titrated into 100 μM domain, 100 mM NaCl, 100 mM tris pH 7.4, 1 mM TCEP, mean of three independent runs
# T1 construct: TBC1D23 C-terminal domains were gel-filtered into buffer; GST (N, cleaved yes); made in house; host or cells: E. coli BL21 pLysS
# T1 sequence (Q8K0F1 559-684 limits assumed): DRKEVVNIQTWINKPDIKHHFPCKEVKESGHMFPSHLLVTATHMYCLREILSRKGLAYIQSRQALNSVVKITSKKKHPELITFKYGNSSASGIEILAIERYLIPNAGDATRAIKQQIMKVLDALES
# Procedure: (§1) Experiments were performed using a Nano ITC machine from TA Instruments. TBC1D23 C-terminal domains were gel-filtered into buffer composed of 100 mM NaCl, 100 mM tris (pH 7.4), and 1 mM tris(2-carboxyethyl)phosphine (TCEP). Peptides were dissolved in the same batch of buffer. Both the wild-type and mutant C-terminal domains were concentrated to 100 μM (1.4 mg/ml) with peptide concentration varying between 0.8 and 5 mM (depending on the peptide). Peptides were titrated into TBC1D23 C-terminal domains with 20 injections of 2.4 μl each separated by 300-s intervals. Experiments were conducted at 20°C. […] Data were exported to GraphPad Prism for figure generation.
# (§2) Recombinant proteins were expressed in BL21 plyS E. coli grown in shaking 2× TY medium at 37°C. Expression was induced with 0.2 mM IPTG, and cells were grown overnight at 22°C. Cells were resuspended in buffer A [250 mM NaCl, 20 mM tris (pH 7.4), and 1 mM DTT] supplemented with 4-benzenesulfonyl fluoride hydrochloride, MnCl2 and deoxyribonuclease I. Cell pellets were lysed using a cell disruptor (Constant Systems) before clarification by ultracentrifugation (104,350 relative centrifugal force) for 45 min. The supernatant was batch bound to glutathione-Sepharose resin (Cytiva) in buffer A before washing with 400 ml of buffer A and overnight cleavage of the GST-tag with thrombin at room temperature. The resultant flow through was concentrated for gel filtration Superdex 200 column (GE Healthcare) into either buffer A for crystallization or into ITC buffer [100 mM NaCl, 100 mM tris (pH 7.4), and 1 mM TCEP].
# [2] = molecular target: T2, TBC1D23 C-terminal domain K672A (Mus musculus, UniProt Q8K0F1, K672A); assay: ITC of syntaxin-16 peptide binding to TBC1D23 C-terminal domain mutant K672A; conditions: mean of three runs, read-out: Mean affinity
# T2 construct: Both the wild-type and mutant C-terminal domains were concentrated to 100 μM; GST (N, cleaved yes); made in house; host or cells: E. coli BL21 pLysS
# T2 sequence (Q8K0F1 559-684 K672A limits assumed): as the sequence (Q8K0F1 559-684 limits assumed) above, with K114A counted along it
# Procedure: as §1
# as §2, with “The resultant flow through was concentrated for gel filtration Superdex 200 column (GE Healthcare) into either buffer A for crystallization or into ITC buffer [100 mM NaCl, 100 mM tris (pH 7.4), and 1 mM TCEP].” left out
# [3] = molecular target: T3, TBC1D23 C-terminal domain V626D (Mus musculus, UniProt Q8K0F1, V626D); assay: ITC of syntaxin-16 peptide binding to TBC1D23 C-terminal domain mutant V626D
# T3 construct: Both the wild-type and mutant C-terminal domains were concentrated to 100 μM; GST (N, cleaved yes); made in house; host or cells: E. coli BL21 pLysS
# T3 sequence (Q8K0F1 559-684 V626D limits assumed): as the sequence (Q8K0F1 559-684 limits assumed) above, with V68D counted along it
# Procedure: as §1
# as §2, with “The resultant flow through was concentrated for gel filtration Superdex 200 column (GE Healthcare) into either buffer A for crystallization or into ITC buffer [100 mM NaCl, 100 mM tris (pH 7.4), and 1 mM TCEP].” left out
# [4] = molecular target: T4, TBC1D23 C-terminal domain I675W (Mus musculus, UniProt Q8K0F1, I675W); assay: ITC of syntaxin-16 peptide binding to TBC1D23 C-terminal domain mutant I675W
# T4 construct: GST (N, cleaved yes); made in house; host or cells: E. coli BL21 pLysS
# T4 sequence (Q8K0F1 559-684 I675W limits assumed): as the sequence (Q8K0F1 559-684 limits assumed) above, with I117W counted along it
# Procedure: as §1
# as §2, with “The resultant flow through was concentrated for gel filtration Superdex 200 column (GE Healthcare) into either buffer A for crystallization or into ITC buffer [100 mM NaCl, 100 mM tris (pH 7.4), and 1 mM TCEP].” left out
# [5] = pH 7.4, bound given for peptides without measurable binding, read-out: Affinity
# [6] = bound, no measurable binding, read-out: Affinity
# [7] = pH 7.4, mean of three runs, read-out: Mean affinity
"Kd [1, 5] [µM]",KD (μM) [1],"Kd [1, 7] [µM]",SMILES,also measured
,,,CC(C)C[C@H](NC(=O)[C@@H](NC(=O)[C@H](CC(N)=O)NC(=O)[C@H](CC(=O)O)NC(=O)[C@@H](N)CC(=O)O)[C@@H](C)O)C(=O)N[C@@H](Cc1ccc(O)cc1)C(=O)N[C@@H](Cc1c[nH]cn1)C(=O)N[C@@H](CCCNC(=N)N)C(=O)NCC(=O)N[C@@H](Cc1ccccc1)C(=O)N[C@H](C(=O)N[C@@H](CCC(=O)O)C(=O)N[C@@H](CC(=O)O)C(=O)O)[C@@H](C)O [STX16_TLY] (H-DDNTLYHRGFTED-OH),"Kd [2]: 27.6 µM; KD (μM) ([3]; 20°C, pH 7.4, figure and text, listed as syntaxin-16 peptide): abolishes peptide binding; also recorded: No binding; Kd [3, 6]: > 200 µM; KD (μM) ([4]; 20°C, pH 7.4, figure and text): No binding; Kd [4, 6]: > 200 µM"
,,15.7,CC(C)[C@H](NC(=O)[C@@H](NC(=O)[C@H](CCC(=O)O)NC(=O)[C@H](CCC(=O)O)NC(=O)[C@H](CC(=O)O)NC(=O)[C@H](CO)NC(=O)[C@@H](N)CC(=O)O)[C@@H](C)O)C(=O)N[C@@H](Cc1ccccc1)C(=O)N[C@@H](CCC(=O)O)C(=O)N[C@@H](CO)C(=O)O [FAM174C_TVF] (H-DSDEETVFES-OH),
> 200,,,C[C@H](NC(=O)[C@@H](NC(=O)[C@H](CC(N)=O)NC(=O)[C@H](CC(=O)O)NC(=O)[C@@H](N)CC(=O)O)[C@@H](C)O)C(=O)N[C@@H](Cc1ccc(O)cc1)C(=O)N[C@@H](Cc1c[nH]cn1)C(=O)N[C@@H](CCCNC(=N)N)C(=O)NCC(=O)N[C@@H](Cc1ccccc1)C(=O)N[C@H](C(=O)N[C@@H](CCC(=O)O)C(=O)N[C@@H](CC(=O)O)C(=O)O)[C@@H](C)O [STX16_LtoA] (H-DDNTAYHRGFTED-OH; N-terminus and C-terminus assumed),reduction of binding relative to wild-type syntaxin-16 peptide [1]: > 100 fold
> 200,No binding,,CC(C)C[C@H](NC(=O)[C@@H](NC(=O)[C@H](CC(N)=O)NC(=O)[C@H](CC(=O)O)NC(=O)[C@@H](N)CC(=O)O)[C@@H](C)O)C(=O)N[C@@H](CO)C(=O)N[C@@H](Cc1c[nH]cn1)C(=O)N[C@@H](CCCNC(=N)N)C(=O)NCC(=O)N[C@@H](Cc1ccccc1)C(=O)N[C@H](C(=O)N[C@@H](CCC(=O)O)C(=O)N[C@@H](CC(=O)O)C(=O)O)[C@@H](C)O [STX16_YtoS] (H-DDNTLSHRGFTED-OH; N-terminus and C-terminus assumed),
,,10.6,CC(C)C[C@H](NC(=O)[C@@H](NC(=O)[C@H](CCC(=O)O)NC(=O)[C@H](CCC(=O)O)NC(=O)[C@@H](N)CCC(=O)O)[C@@H](C)O)C(=O)N[C@@H](Cc1ccc(O)cc1)C(=O)N[C@@H](CO)C(=O)N[C@@H](CO)C(=O)N[C@@H](CCCCN)C(=O)N[C@@H](Cc1c[nH]cn1)C(=O)O [CPD_TLY] (H-EEETLYSSKH-OH),
,,2.91,CC(C)[C@H](NC(=O)[C@@H](NC(=O)[C@H](Cc1ccccc1)NC(=O)[C@H](CC(=O)O)NC(=O)CNC(=O)[C@H](CC(=O)O)NC(=O)[C@H](CCC(=O)O)NC(=O)[C@H](CC(N)=O)NC(=O)[C@H](CCC(=O)O)NC(=O)[C@H](CCC(=O)O)NC(=O)[C@@H](N)CC(=O)O)[C@@H](C)O)C(=O)N[C@@H](Cc1ccc(O)cc1)C(=O)N[C@@H](CCC(=O)O)C(=O)N[C@@H](CS)C(=O)O [NPDC1_TVY] (H-DEENEDGDFTVYEC-OH),
,,151,C[C@@H](O)[C@H](NC(=O)[C@H](Cc1ccccc1)NC(=O)CNC(=O)[C@H](CCCNC(=N)N)NC(=O)[C@H](Cc1c[nH]cn1)NC(=O)[C@H](Cc1ccc(O)cc1)NC(=O)[C@H](Cc1ccccc1)NC(=O)[C@@H](NC(=O)[C@H](CC(N)=O)NC(=O)[C@H](CC(=O)O)NC(=O)[C@@H](N)CC(=O)O)[C@@H](C)O)C(=O)N[C@@H](CCC(=O)O)C(=O)N[C@@H](CC(=O)O)C(=O)O [STX16_LtoF] (H-DDNTFYHRGFTED-OH),
> 200,no binding,,CC(C)[C@H](NC(=O)[C@@H](NC(=O)[C@H](CO)NC(=O)[C@H](Cc1ccc(O)cc1)NC(=O)[C@@H](NC(=O)[C@@H](NC(=O)[C@H](CC(N)=O)NC(=O)[C@H](C)NC(=O)[C@@H]1CCCN1C(=O)[C@H](CC(=O)O)NC(=O)[C@@H](N)CCC(=O)O)[C@@H](C)O)C(C)C)[C@@H](C)O)C(=O)N[C@@H](CCC(=O)O)C(=O)O [SLAMF7_TVY] (H-EDPANTVYSTVE-OH; N-terminus and C-terminus assumed),
> 200,no binding,,CSCC[C@H](NC(=O)[C@H](CC(C)C)NC(=O)[C@H](Cc1c[nH]c2ccccc12)NC(=O)[C@H](CCC(=O)O)NC(=O)[C@@H](NC(=O)[C@H](CCC(=O)O)NC(=O)[C@H](CC(N)=O)NC(=O)[C@H](CCC(=O)O)NC(=O)[C@H](CC(=O)O)NC(=O)[C@@H](NC(=O)[C@H](CCC(=O)O)NC(=O)[C@H](CCC(=O)O)NC(=O)[C@@H](N)CCC(=O)O)[C@@H](C)O)[C@@H](C)O)C(=O)O [CIMPR_WLM] (H-EEETDENETEWLM-OH; N-terminus and C-terminus assumed),
> 200,No binding,,C[C@@H](O)[C@H](NC(=O)[C@H](Cc1ccccc1)NC(=O)CNC(=O)[C@H](CCCNC(=N)N)NC(=O)[C@H](Cc1c[nH]cn1)NC(=O)[C@H](Cc1ccc(O)cc1)NC(=O)[C@H](CO)NC(=O)[C@@H](NC(=O)[C@H](CC(N)=O)NC(=O)[C@H](CC(=O)O)NC(=O)[C@@H](N)CC(=O)O)[C@@H](C)O)C(=O)N[C@@H](CCC(=O)O)C(=O)N[C@@H](CC(=O)O)C(=O)O [STX16_LtoS] (H-DDNTSYHRGFTED-OH; N-terminus and C-terminus assumed),
,,35.2,CC[C@H](C)[C@H](NC(=O)[C@@H](NC(=O)[C@H](CC(=O)O)NC(=O)[C@H](CCC(N)=O)NC(=O)[C@H](CC(=O)O)NC(=O)[C@H](CO)NC(=O)[C@H](CC(=O)O)NC(=O)[C@H](Cc1ccccc1)NC(=O)[C@H](CCC(=O)O)NC(=O)[C@H](CO)NC(=O)[C@@H](N)CCC(=O)O)[C@@H](C)O)C(=O)N[C@@H](Cc1ccccc1)C(=O)O [KIAA0319_TIF] (H-ESEFDSDQDTIF-OH),
> 200,,,CC(C)C[C@H](NC(=O)[C@@H](NC(=O)[C@H](CC(N)=O)NC(=O)[C@H](C)NC(=O)[C@H](C)N)[C@@H](C)O)C(=O)N[C@@H](Cc1ccc(O)cc1)C(=O)N[C@@H](Cc1c[nH]cn1)C(=O)N[C@@H](CCCNC(=N)N)C(=O)NCC(=O)N[C@@H](Cc1ccccc1)C(=O)N[C@H](C(=O)N[C@@H](CCC(=O)O)C(=O)N[C@@H](CC(=O)O)C(=O)O)[C@@H](C)O [STX16_DDAA] (H-AANTLYHRGFTED-OH; N-terminus and C-terminus assumed),
,,5.64,CC(C)C[C@H](NC(=O)[C@@H](NC(=O)[C@H](CC(N)=O)NC(=O)[C@H](CC(=O)O)NC(=O)[C@@H](N)CC(=O)O)[C@@H](C)O)C(=O)N[C@@H](Cc1c[nH]c2ccccc12)C(=O)N[C@@H](Cc1c[nH]cn1)C(=O)N[C@@H](CCCNC(=N)N)C(=O)NCC(=O)N[C@@H](Cc1ccccc1)C(=O)N[C@H](C(=O)N[C@@H](CCC(=O)O)C(=O)N[C@@H](CC(=O)O)C(=O)O)[C@@H](C)O [STX16_YtoW] (H-DDNTLWHRGFTED-OH),

SMILES,"Kd [1, 5] [µM]",KD (μM) [1],"Kd [1, 7] [µM]",also measured
CC(C)C[C@H](NC(=O)[C@H](C)NC(=O)[C@H](CC(N)=O)NC(=O)[C@H](CC(=O)O)NC(=O)[C@@H](N)CC(=O)O)C(=O)N[C@@H](Cc1ccc(O)cc1)C(=O)N[C@@H](Cc1c[nH]cn1)C(=O)N[C@@H](CCCNC(=N)N)C(=O)NCC(=O)N[C@@H](Cc1ccccc1)C(=O)N[C@H](C(=O)N[C@@H](CCC(=O)O)C(=O)N[C@@H](CC(=O)O)C(=O)O)[C@@H](C)O [STX16_TtoA] (H-DDNALYHRGFTED-OH; N-terminus and C-terminus assumed),> 200,No binding,,
